Experimental data reported in PubChem BioAssay AID179 (DTP/NCI, 2004).
“And” between values parts separate entries of the source, which are not always exact repeats. Identical values can stand only once. The source made the active and inactive calls.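 How the source made its calls: active means compounds giving half or more protection of infected cells from virus-caused growth loss, again on retest; inactive means the rest.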 Where a SMILES comes first, the peptide text is derived from it. The star is where a group is joined. Boc = CC(C)(C)OC(=O)*; OBn = c1ccc(CO*)cc1

System: CEM cells HIV-1 protection, formazan growth assay
Test: NCI AIDS Antiviral Assay
Settings: for IC50: measured here: growth of uninfected CEM cells
Method in brief: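 Screen of anti-HIV-1 activity in human CEM cells using a formazan-based growth measurement at five drug concentrations. Hits with 50% or greater protection were repeated, and confirmation required reproducible complete protection.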

Row | SMILES | EC50 | IC50 | outcome
1 | CC(C)(CN1CCCCC1)C(=O)/C=C/c1c(Cl)cccc1Cl | > 200 µM | 1.86 µM | 
2 | Cn1c(COc2ccc(/C=N/NC(=O)c3cccc(C(=O)N/N=C/c4ccc(OCc5c[n+]6ccccc6n5C)cc4)c3)cc2)c[n+]2ccccc12 | > 6.92 µM | > 6.92 µM | 
3 | O=C(/C=C/c1ccc(Br)cc1)c1ccccc1 | > 18.2 µM | 9.55 µM | 
4 | Cc1cnc2c(c1)C(=O)C1=C(OC(C)(C)CC1O)C2=O (centres undefined) | > 26.3 µM | 3.39 µM | 
5 | O=C1OC(CN2CCN(c3ccccc3)CC2)CN1C(=S)Nc1ccccc1 (centres undefined) | > 200 µM | 115 µM | 
6 | CCCCNC(C)(C)C(SSSC(c1ccco1)C(C)(C)NCCCC)c1ccco1 (centres undefined) | > 200 µM | 30.9 µM | 
7 | COC1/C=C\OC2(C)Oc3c(C)c(O)c4c(c3C2=O)C(=O)C=C(NC(=O)/C(C)=C\C=C/C(C)C(O)C(C)C(O)C(C)C(OC(C)=O)C1C)C4=O (centres undefined) | > 200 µM | 2.69 µM | 
8 | Nc1nc2c(ncn2C2C=CC(O)CC2)c(=O)[nH]1 (centres undefined) | > 55 µM | > 55 µM | 
9 | CC(C)(C)[Si](C)(C)O[C@@H](C(=O)OC1C=CCCC1)[C@@H](NC(=O)c1ccccc1)c1ccccc1 (some centres undefined) | > 200 µM | 12.3 µM | 
10 | O=C1c2c(O)cc(O)cc2O[C@@]12c1c(cc(O)c3c1O[C@H](c1ccc(O)cc1)[C@@H](O)C3)O[C@@H]2c1ccc(O)cc1 | 2.57 µM | 50.1 µM | 
11 | CC1CN(C=O)CC(C)N1CCN1C(C)CN(C=O)CC1C (centres undefined) | > 288 µM | > 288 µM | 
12 | COc1cc2c(c(OC)c1OC)CCC1C(=O)NN=C21 (centres undefined) | > 912 µM | 102 µM | 
13 | O=C(O)[C@@H](NS(=O)(=O)c1ccc2ccccc2c1)c1ccccc1 |  |  | inactive
14 | CC(C)CN(CC(C)C)C(=O)C(Br)C(Br)C(=O)O (centres undefined) | > 200 µM | 91.2 µM | 
15 | Cc1ccc2c3ccc4c(c3n(C)c2c1)C(=O)C=CC4=O | > 100 µM | 1.82 µM | 
16 | COC1=C(C)C(=O)c2nc(Cl)cc(C)c2C1=O |  |  | inactive
17 | O=C(c1ccccc1)[C@H]1Nc2ccc(Cl)cc2[C@H]2OCCC[C@@H]12 | > 11.5 µM | > 11.5 µM | 
18 | COCCCNC1=C(C#N)C(=O)NC2(CCCC2)S1 | > 525 µM | > 525 µM | 
19 | O=C(NO)c1ccc(O)c(O)c1 | > 1480 µM | 74.1 µM | 
20 | CC(C)C1NC(=O)c2ccccc2S1 (centres undefined) | > 871 µM | 195 µM | 
21 | C=CCN(CC=C)C(=O)Nc1ccc(C(=O)N/N=C/c2cccc(OC)c2OC)cc1 | 89.1 µM | 170 µM | 
22 | CCCOC(=O)C(F)C(Br)C(=O)OCCC (centres undefined) | > 200 µM | 3.16 µM | 

Row | SMILES | EC50 | IC50 | outcome
23 | CC(OC(C)(C)C)C(NC(=O)C(Cc1ccccc1)NC(=O)C(NC(=O)C(CCCCNC(=O)OC(C)(C)C)NC(=O)C(Cc1c[nH]c2ccccc12)C(=O)NC(Cc1ccccc1)NC(=O)C(Cc1ccccc1)NC(=O)C(CC(N)=O)NC(=O)C(N)CCCCNC(=O)OC(C)(C)C)C(C)OC(C)(C)C)C(=O)NC(COC(C)(C)C)C(=O)NC(CSC(C)(C)C)C(=O)OC(C)(C)C (centres undefined) | 87.1 µM | > 200 µM | 
24 | Cc1cc2c(cc1C)N1C(Cl)=C3CCCCC3=C(C#N)C1N2 (centres undefined) | > 20 µM | 0.562 µM | 
25 | CC1C=CC(O)[C@]2(CO)CC3(CCC12)OCCO3 (some centres undefined) |  |  | inactive
26 | C=C1C(=O)O[C@H]2[C@H](OC(C)=O)[C@@H](C)CCC/C(C)=C/CC[C@@]3(C)O[C@@H]3C[C@@H]12 | > 126 µM | 5.62 µM | 
27 | [CH2+][B-]1(C)n2ccc[n+]2[B-](C)(C)[n+]2cccn21 | > 200 µM | > 100 µM | 
28 | CCN(CC)CCc1nc(-c2ccccc2)no1 | > 200 µM | 27.5 µM | 
29 | COC1CC(C)C(OC)c2cc(O)cc(c2O)NC(=O)/C(C)=C/C=C\C(C)C(OC(N)=O)/C(C)=C\C(C)C1OC (centres undefined) | > 170 µM | 0.676 µM | 
30 | CC(C)C(NC(=O)OC(C)(C)C)C(=O)N1CCCC1C(=O)OCc1ccccc1 (stereo not drawn) (Boc-Val-Pro-OBn; configuration not given here) | > 200 µM | 123 µM | 
31 | O=C1CC(=O)N2C(=O)CC(=O)N12 | > 537 µM | > 537 µM | 
32 | O=C1c2ccccc2C(=O)c2c(NCCNCCO)ccc(O)c21 |  |  | inactive
33 | CCCCCCCCCCCC(O)=C1C(=O)CCCC1=O | > 17.8 µM | > 17.8 µM | 
34 | Cc1ccnc(NS(=O)(=O)c2ccc(N=Nc3c(N)n(C)c(=O)n(C)c3=O)cc2)n1 |  |  | inactive
35 | Cc1nc2ccccc2c(=O)n1NC(=O)c1ccccc1O | > 200 µM | 38 µM | 
36 | Cc1ccc(C2=Nc3ccccc3NC(=O)C2)cc1 | 20.4 µM | 75.9 µM | 
37 | COc1ccc(CSc2nc3ccccc3nc2-c2cccs2)cc1 | > 3.98 µM | > 3.98 µM | 
38 | Clc1ccc(CSc2ccc3nncc(SCc4ccc(Cl)cc4Cl)c3c2)c(Cl)c1 | > 29.5 µM | > 29.5 µM | 
39 | CC(=O)Oc1ccc(C2(c3ccc(OC(C)=O)cc3)C(=O)Nc3ccccc32)cc1 | > 200 µM | 35.5 µM and 36.3 µM | 
40 | O=S(=O)([O-])c1ccc(N=Cc2ccccc2[O-])cc1.O=S(=O)([O-])c1ccc(N=Cc2ccccc2[O-])cc1.[Co+2] | > 407 µM | 23.4 µM | 
41 | Nc1ccc2cc(S(=O)(=O)O)cc(O)c2c1N=Nc1ccc(-c2ccc(N=Nc3c(S(=O)(=O)O)cc4cc(S(=O)(=O)O)c(N=Nc5ccc([N+](=O)[O-])cc5)c(N)c4c3O)cc2)cc1 |  |  | inactive
42 | CC(C)P(=S)(OCc1ccccc1)C(C)C | > 200 µM | 126 µM | 
43 | CC(=O)NCC1OC2COC(c3ccccc3)OC2C(NC(=O)c2ccccc2)C1OC(=O)c1ccccc1 (centres undefined) |  |  | inactive
